Entries after “also recorded” stand apart in the source; their conditions may differ.

Data on three compounds can be found in patent US8980917B2, “Methods for treating or preventing brain infections” (The Johns Hopkins University, priority 2008, dated 2015).

The subject of series [1] is blood-brain barrier. Put plainly: Blood-brain barrier permeability by Evans blue dye extravasation into the brain. The following applies: cPLA2α-/- mice. Format: in vivo, mouse.
Series [2] relates to E. coli K1 strain RS218. Put plainly: Mouse model of experimental hematogenous E. coli meningitis (cPLA2α-/- and wild type BALB/c mice). The note with it: i.v. 1.2 μg/mouse in 50 μl PBS 30 mins before bacterial injection. Format: in vivo. As to the method:
cPLA2α−/− and wild type mice, either male or female, […] that had been backcrossed on the BALB/c strain for >10 generations were used^14. All procedures and handling techniques were approved by The Johns Hopkins Animal Care and Use Committee.
Each mouse received 1×10^7 CFU of E. coli K1 strain RS218 in 100 μl PBS via the tail vein. One hour later, mouse chest was cut open, and blood from right ventricle was collected and plated for bacteria counts, which were expressed as CFUs/ml of blood. The mouse was then perfused with a mammalian Ringer's solution by transcardiac perfusion through a 23-gauge needle inserted into the left ventricle of the heart under the perfusion pressure of about 100 mmHg. The perfusate exited through a cut in the right atrium. […] The brains were removed, weighed and homogenized in 2 ml RPMI followed by plating for bacterial counts, which were expressed as CFUs/gm. Since E. coli K1 penetration into the brain is shown to depend on the magnitude of bacteremia^5,7, bacterial penetration into the brain was also expressed as [(brain CFUs per gm)/(blood CFUs per ml)]×100. Kidneys and spleens were also removed, homogenized and plated for determination of bacterial counts, which were expressed as CFUs/gm. […]

Series [3] concerns C. neoformans. Briefly: Mouse model of C. neoformans meningitis/meningoencephalitis following intravenous inoculation. The series is classed as in vivo. The note with it: strain B-3501A; cPLA2α-/- mice; i.v. 1.2 μg/mouse 30 mins before C. neoformans injection; 24 hours. How it is done:
The mouse model of Cryptococcal meningitis/meningoencephalitis following intravenous inoculation was used to determine the hematogenous dissemination of C. neoformans to the brain as described previously (7, 8). C. neoformans strains grown on 1% yeast extracts, 2% peptone and 2% dextrose (YPD) agar were suspended in phosphate-buffered saline (PBS, pH 7.4) and counted with a hemocytometer to determine the yeast cell number. This suspension was also cultured on YPD agar plates, and colonies (CFUs) counted after 3 days of incubation at 30° C. as previously described (11). The inoculum size was confirmed by CFUs.
Briefly, female BALB/c mice received 10^5 yeast cells via the tail vein. 24 hours later, the blood specimens were obtained for determination of CFUs, and the animals perfused with sterile Ringer's solution until the perfused solution became colorless. The brains were removed, weighed, homogenized and cultured on YPD agar for determination of CFUs.
cPLA2α. We examined the role of host cPLA2α in C. neoforman strain B-3501A penetration into the brain by studying cPLA2α−/− mice as compared to their strain-matched wild type mice. Each animal received 10^5 yeast cells via the tail vein. 24 hours later, the blood specimens were obtained for determination of CFUs, and the animals perfused with sterile Ringer's solution until the perfused solution became colorless. […]

Series [4] relates to human BMEC. The note with it: inhibitors of iPLA2 and sPLA2; refs (1-3, 24); cited from earlier work.
Series [5] has as its system HBMEC. The note with it: inhibitors of iPLA2 and sPLA2; refs (1-3, 24); cited from earlier work.
Series [6] relates to HBMEC monolayers. Put plainly: Integrity of HBMEC monolayers by TEER before and after transcytosis assays. The series is classed as cell-based, human. The note with it: at 50 μM. The source says: We also examined the effect of C. neoformans traversal on the HBMEC monolayer integrity, as measured by passive diffusion of ^3H-inulin and TEER at the end of the transcytosis experiment as described previously (7).

The subject of series [7] is E. coli K1 strain RS218. Put plainly: Infant rat model of experimental hematogenous E. coli meningitis. The note with it: 5-day-old rats, 9 animals; i.p. 50 μg/10 gm one hour before bacteria; p < 0.001 by Fisher's exact test. Format: in vivo. How it is done: Experimental hematogenous E. coli meningitis was induced in 5-day old rats as previously described (9, 10, 14, 28). Briefly, outbred, specific-pathogen-free pregnant Sprague-Dawley rats with timed conception were purchased from Charles River Breeding laboratory (Wilmington, Mass.). The rats delivered in our vivarium 5 to 7 days after arrival. At 5 days of age, all members of each litter were randomly divided into two groups, to receive intraperitoneally montelukast (50 μg/10 gm of weight in 50 μl PBS) or vehicle control (3.3% DMSO in 50 μl PBS). One hour later, each animal received 1×10^7 CFU of E. coli K1 strain RS218 via intracardiac injection. At one hour after bacterial injection, blood and CSF specimens were obtained as described previously (9, 10, 14, 28) for quantitative cultures. The development of E. coli meningitis (defined as positive CSF cultures) was compared between the two groups of animals.
We also examined one of the CysLT1 antagonists for its effect on E. coli K1 penetration into the brain in our well-characterized infant rat model of experimental hematogenous E. coli meningitis (9, 10, 14, 28). At 5 days of age, all members of each litter were randomly divided to receive intraperitoneally montelukast or vehicle control. […] At one hour after bacterial inoculation, blood and cerebrospinal fluid (CSF) specimens were obtained for quantitative cultures.

For series [8] the following is noted: developed for asthma; cited from earlier work.

As to `CCCCC/C=C\C/C=C\C/C=C\C/C=C\CCCC(=O)O` [arachidonic acid, Arachidonic acid], the “blood-brain barrier permeability (Evans blue extravasation into the brain)” value in series [1] (1.2 μg i.v. 30 min before E. coli RS218 injection) is “no significantly increased extravasation of intravenously administered Evans blue dye into the brain; also recorded: did not affect the blood-brain barrier permeability”; in series [1] (1.2 μg/mouse i.v. 30 mins before C. neoformans injection) it was “not accompanied by any change in the blood-brain barrier permeability”. Also, the “E. coli K1 penetration into the brain (brain CFU/gm and percent of brain CFU/blood CFU)” value in series [2] is “significantly enhanced E. coli K1 penetration into the brain to the level observed in the wild type mice”. Moreover, in series [3], the “C. neoformans penetration into the brain (CFU/gm)” value is “significantly enhanced C. neoformans penetration into the brain to the level observed in the wild type mice”.
`O=C1O/C(=C/Br)CCC1c1cccc2ccccc12` (stereo not shown) [bromoenol lactone]: in series [4], the “GBS invasion of human BMEC” value was “did not exhibit any significant inhibition”. The “E. coli invasion of human BMEC” value in series [5] is “did not exhibit any significant inhibition”.
On to `CC(C)(O)c1ccccc1CC[C@@H](SCC1(CC(=O)O)CC1)c1cccc(/C=C/c2ccc3ccc(Cl)cc3n2)c1` [montelukast], for which the “integrity of the HBMEC monolayers (TEER)” value in series [6] is given as “did not affect the integrity of the HBMEC monolayers”. For the same compound, in series [7], the “% of animals with meningitis (positive CSF cultures)” value is reported as 22% and the “No. of animals with meningitis (positive CSF cultures)” value is recorded as 2. Moreover, the “safety and tolerability in clinical trials” value in series [8] is “safe and well tolerated”.
